Data: US20220273660A1, “MEK INHIBITOR FOR TREATMENT OF STROKE” (EDVINCE AB, priority 2019, published 2022)
“Also recorded” adds a separate entry of the source.

Tests used:
[1] = tested on: rat basilar arteries (contractile ETB receptors); assay: 48 h organ culture of basilar artery, S6c (ETB agonist)-induced contraction in wire myograph; type: cell-based
Protocol: Rats were sedated with O2/CO2 (30/70%) and sacrificed by decapitation. Brains were gently removed and chilled in a cold oxygenated buffer solution of the following composition: 119 mM NaCl, 4.6 mM KCl, 1.5 mM CaCl2, 1.2 mM MgCl2, 1.2 mM NaH2PO4, 15 mM NaHCO3 and 5.5 mM Glucose; pH 7.4. The basilar artery (BA) was carefully dissected from the brain in a physiological buffer solution followed by either OC (naïve animals) or directly mounted in a wire myograph (arteries from rats which has undergone surgical procedures). Segments were incubated for 48 hours at 37° C. in humidified 5% CO2/O2 in DMEM supplemented with streptomycin and penicillin with inhibitors or vehicle (DMSO). Culture media was changed after 24 hours.
(§1) For contractility measurements, both incubated BAs (ex vivo) and BAs after surgical procedure (in vivo) were cut into segments and mounted on a pair of metal wires (40 μm) in a myograph bath. The arteries from OC were mounted the same way after 48 hours in media. One wire was attached to a micro-meter screw which allows for fine adjustments of the distance between the wires, controlling the vascular tone.
(§2) The segments were equilibrated in physiological buffer aerated with 95% O2/5% CO2, pH of 7.4, temperature set at 37° C. and the wires were separated for isometric pretension at 2 Nm^−1. The arterial segments were exposed two or three times with 60 mM K^+, by exchanging the buffer with a 60 mM K^+ buffer solution. To maintain equal osmolarity, a proportional amount of Na^+ had been removed from the buffer. An absolute cut-off was set at 2.0 mN K^+max for inclusion of arterial segments from rats that underwent the surgical procedure. Endothelium function was evaluated with the addition of 5-HT (3.10^−7 M) followed by carbachol (10^−5 M). For arteries from the OC the protocol was as followed: first a cumulative concentration-response curve to sarafotoxin 6C (S6c, 10^−14-10^−7 M), followed by a concentration-response curve to endothelin-1 (ET-1, 10^−14-10^−7 M). At peak ET-1 (10^−7 M), the buffer was changed to a Ca^2+-free buffer containing 10^−7 M ET-1 and nimodipine (L-type of voltage dependent Ca^2+ channel entry blocker, 10^−7 M). A concentration-response curve to Ca^2+ (0.0125-3 mM) was then performed. When vasodilation was investigated arteries was precontracted with U46619 (1.10^−7-3.10^−7 M) or K^+ (41 mM) and cumulative concentration-response curves was performed by adding calcitonin gene-related peptide (CGRP, 10^−12-10^−7 M), carbachol (10^−10-10^−5 M) or SNP (10^−11-10^−4 M).
(§3) Contractile responses of each segment were adjusted according to the length of the artery and are expressed as mN/mm (Nm^−1). […] To compare ET-1 sensitivity, arteries were normalized to the percentage of the individual vessel ET-1max. When the artery reached maximum contraction before the last concentration was added, the curves were constrained to the max contraction. The relative log IC50/log EC50 is the concentration corresponding to a response midway between the estimates of the lower and upper plateaus. The Emax is the maximal contraction in the concentration response curve and ET-1max is the maximal contraction to ET-1. All quantitative data is presented as mean±standard error of the mean (SEM), unless otherwise stated.

[2] = tested on: rat subarachnoid haemorrhage model; assay: Rat SAH model, intrathecal treatment, myograph of basilar arteries; type: in vivo
Protocol: as §1
as §2, with “The” for “The segments were equilibrated in physiological buffer aerated with 95% O2/5% CO2, pH of 7.4, temperature set at 37° C. and the wires were separated for isometric pretension at 2 Nm^−1. The”, “A concentration-response curve to Ca^2+ (0.0125-3 mM) was then performed.” left out
If there was only one curve above the cut-off, the concentration-response curve to ET-1 was prioritized. Segments with the highest K^+ response were generally allocated to the concentration-response curve to ET-1. […] The Ca^2+ free buffer solution had similar composition as above, but 1.5 mM CaCl2 was exchanged with 0.03 mM EDTA.
as §3
Rats were anesthetized and prepared for cisternal infusion of autologous blood, which simulates a SAH. Sham-operated rats went through the same procedure, omitting the intracisternal blood injection of 300 μL. At the end of the procedure, a PinPort (PNP3F22, Instech, US) was placed at the end of the ICP catheter to provide access for intrathecal (i.t.) injectable treatments by a PinPort injector (PNP-3M, Instech, US). 24 hours post-surgery, the rats received s.c. injections of Carprofen (Norodyl, 5 mg/kg) (Scanvet, Denmark) for analgesia.
The intrathecal (i.t.) treatment volumes were estimated for a cerebrospinal fluid (CSF) volume of approximately 90 μL (21) and the total dose was administered as three treatments (4 hours, 10 hours and 24 hours) through the PinPort in the ICP catheter placed in the cisterna magna during the surgical procedure. The first and third injections were given under fixation of the rat. […] Animals were given 2.5 ml isotonic saline s.c. to avoid dehydration, immediately after surgery and in conjunction with the 10 hours and 24 hours treatments.

[3] = tested on: rat middle cerebral arteries (ETB receptor); assay: 48 h in vitro organ culture of MCAs, wire myography (S6c, ET-1); type: cell-based
Protocol: MCAs from naïve rats were dissected and segments (1.5 mm) were incubated for 48 h in Dulbecco's modified Eagle's medium contained L-glutamine (584 mg/L) supplemented with penicillin (100 U/ml) and streptomycin ([…]) at humidified 5% CO2 atmosphere. Before incubation, 4 different concentrations of trametinib (5 μM, 1 μM, 0.1 μM or 0.03 μM), dissolved in 0.1% dimethyl sulfoxide (DMSO) in NaCl, or 0.1% DMSO in NaCl (vehicle) was added.

SMILES: CC(=O)Nc1cccc(-n2c(=O)n(C3CC3)c(=O)c3c(Nc4ccc(I)cc4F)n(C)c(=O)c(C)c32)c1 [trametinib]
- inhibition of S6c-induced contraction (initial screening groups) ([1]; 1 μM inhibitor, 48 h organ culture, S6c contraction relative to 60 mM K+): Highly effective; also recorded: almost completely inhibited
- IC50 ([1]; Rattus norvegicus, 48 h organ culture, inhibition of S6c-induced contraction, read-out: pIC50 (based on the Emax for S6c) (converted)): 20.9 nM
- estimated inhibitor effect in the ex vivo OC study ([1]; at predicted CSF concentration of approximately 10^-7 M): ~75%
- K+ responses compared to i.t. vehicle ([2]; SAH + i.t. treatment): higher K^+ responses
- contraction at low ET-1 concentrations (10^-12.5-10^-11.0 M), ET-1max normalised, vs SAH+vehicle ([2]; SAH + i.t. treatment): significantly reduced
- nimodipine insensitive ET-1max contraction ([2]; SAH + i.t. treatment, Ca2+ curve, 10^-7 M nimodipine): 1.8±0.5 Nm^−1
- contractile response of BAs to 60 mM K+ ([2]; SAH + i.t. treatment, all BAs incl. below cut-off): 5.00±0.29 Nm^−1
- endothelium function ([2]; animals treated in vivo i.t. after SAH): No significant changes
- increased ET-1-induced vasoconstriction of MCAs ([3]; 0.1 μM, 48 h OC): total blockage of the ETB receptor subtype response; also recorded: significantly inhibit; also recorded: inhibitory effect
- S6c-induced contraction of MCAs ([3]; 48 h OC, 5, 1, 0.1 or 0.03 μM, concentration-dependent): significantly inhibited
